Non-standard residues stand in square brackets, D forms with d. No end group written: not given here. Arg(Me2s) = CN=C(NC)NCCC[C@H](N)C(=O)O

This assay has as its system anti-Sm antibodies. The assay is described as follows: Epitope-mapping with immobilized oligopeptides (peptide arrays) probed with anti-Sm sera. In kind it is binding, human. The conditions noted are these: panel of five anti-Sm sera (#36, #37, #31, #84, #Sm); serum 1:100; ECL detection. An excerpt: The published sequences of SmD1, P13641, (Rokeach et al., 1988) and SmD3, P43331, (Lehmeier et al., 1994) were used to synthesize overlapping 15 mer peptides with a pipetting robot according to the protocol described by Gausepohl and Behn (2002). The C-terminal extensions of both polypeptides were synthesized with an offset of 2 amino acids (13 amino acids overlap). Each arginine containing peptide was synthesized as three variants, with natural arginine, with sDMA or with asymmetrical dimethylarginine (asDMA) at the respective positions. Later on, a highly reactive peptide of SmD3 was synthesized with certain combinations of natural arginine and sDMA. Following completion of the peptide synthesis non-specific binding sites were blocked by over-night incubation of the membranes in blocking buffer (BB) at room temperature (RT). After one washing step membranes were incubated with serum samples at a dilution of 1:100 in BB for 2 h at RT. Unbound antibodies were removed by three washing steps. For detection peroxidase conjugated goat-anti-human IgG antibody was diluted 1:5000 in BB and incubated for 75 min (RT). Superfluous secondary antibodies were removed by three washing steps. Finally, bound antibodies were visualized using the enhanced chemoluminiscence (ECL) detection-system.
Epitope fine-mapping of the C-terminal extensions of SmD1 and D3. To evaluate the effect of arginine-dimethylation on the antigenicity of SmD1 and SmD3 and to map relevant epitopes on both polypeptides a panel of anti-Sm sera was tested with peptide arrays (15 mer, 2 offset) covering the C-terminal region of SmD1 (P13641) and SmD3 (P43331).

Turning to “AARG sdR GRGMGRGNIF (AARG[Arg(Me2s)]GRGMGRGNIF) [S33, SmD3 aa 108-122 mimotope peptide with a single symmetrical dimethylarginine at position 112; ELISA version with additional C-terminal Cys]”, the “number of anti-Sm sera recognizing the peptide” value is reported as “all of the five”.
